This is an account of results in patent US8344008B2 (Janssen Pharmaceutica NV, priority 2007, dated 2013).

The first assay relates to colitis symptoms.
Assay: not given
The conditions noted are these: eight weeks of treatment; cotton top tamarins; cited from earlier work.
On to `CN(CCCOc1ccc(Cc2ccccc2)cc1)CCC(=O)O.Cl` [SC57461], for which the colitis symptoms result is “significantly improved colitis symptoms”.

The next assay concerns LTB4 production.
Assay: not given
The settings on record: oral administration; mouse blood ex vivo; cited from earlier work.
With `CN(CCCOc1ccc(Cc2ccccc2)cc1)CCC(=O)O.Cl` [SC57461], the “inhibition of ionophore-induced LTB4 production” value was “caused inhibition”.

For another assay, the system named is LTB4 production.
Assay: not given
The settings on record: oral administration; rat peritoneum in vivo; cited from earlier work.
Turning to `CN(CCCOc1ccc(Cc2ccccc2)cc1)CCC(=O)O.Cl` [SC57461], the “inhibition of ionophore-induced LTB4 production” value was “caused inhibition”.

In the next assay the target is T1, recombinant human LTA4 hydrolase (rhLTA4H) (Homo sapiens, UniProt P09960).
T1 construct: made in house; host or cells: Spodoptera frugiperda (Sf-9) cells, baculovirus (pFastBac1)
T1 sequence (P09960 1-611): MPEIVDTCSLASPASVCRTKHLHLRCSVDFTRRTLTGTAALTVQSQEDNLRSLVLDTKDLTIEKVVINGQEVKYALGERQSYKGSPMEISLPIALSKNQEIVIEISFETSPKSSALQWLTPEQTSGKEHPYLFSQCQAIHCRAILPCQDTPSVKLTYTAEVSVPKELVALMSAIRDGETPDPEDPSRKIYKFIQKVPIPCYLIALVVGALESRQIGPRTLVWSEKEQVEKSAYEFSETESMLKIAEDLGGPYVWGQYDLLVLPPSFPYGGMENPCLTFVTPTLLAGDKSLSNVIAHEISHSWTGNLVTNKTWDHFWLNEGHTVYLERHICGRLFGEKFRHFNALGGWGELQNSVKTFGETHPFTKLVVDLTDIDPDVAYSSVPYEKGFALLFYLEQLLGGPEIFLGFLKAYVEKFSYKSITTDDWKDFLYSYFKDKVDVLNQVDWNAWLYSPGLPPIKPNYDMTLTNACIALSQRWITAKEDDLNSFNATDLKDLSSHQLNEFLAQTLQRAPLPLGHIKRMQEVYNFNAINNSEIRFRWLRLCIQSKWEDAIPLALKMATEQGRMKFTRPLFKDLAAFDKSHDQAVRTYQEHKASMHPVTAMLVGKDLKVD
Nature of the assay: Recombinant Human LTA4 Hydrolase Assay for LTA4 Hydrolase Inhibitor Activity. The class given is biochemical. The settings on record: average of results obtained; LTB4 quantified by enzyme-linked immunoassay. The gist of the method:
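LTB4 formation, quantified by EIA after 10 min at rt, was the read-out once 9 ng LTA4 (free acid) was added to recombinant human enzyme (36 ng, Sf-9 expressed) that had sat 10 min with compound. Buffer: 0.1 M potassium phosphate pH 7.4 with fatty-acid-free BSA; IC50 by 4-parameter fit.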
With `CC(=O)N1[C@@H]2CC[C@H]1C[C@H](NCCc1ccc(Oc3nc4c(Cl)cccc4s3)cc1)C2` [Example 275, meso-exo-1-(3-{2-[4-(4-Chloro-benzothiazol-2-yloxy)-phenyl]-ethylamino}-8-aza-bicyclo[3.2.1]oct-8-yl)-ethanone], the Ki came to 0.264 µM.
Turning to `NC(=O)N1C[C@@H]2C[C@H]1CN2Cc1ccc(Cc2nc3ccccc3s2)cc1` [Example 35, (S,S)-5-(4-Benzothiazol-2-ylmethyl-benzyl)-2,5-diaza-bicyclo[2.2.1]heptane-2-carboxylic acid amide], the Ki came out at 0.093 µM.
Same read-out and setting: with `NC(=O)N[C@@H]1C[C@H]2CC[C@@H](C1)N2CCc1ccc(Oc2nc3cc(F)ccc3s2)cc1` [Example 242, meso-exo-(8-{2-[4-(5-Fluoro-benzothiazol-2-yloxy)-phenyl]-ethyl}-8-aza-bicyclo[3.2.1]oct-3-yl)-urea] the figure was 0.398 µM; with `NC(=O)N[C@H]1C[C@H]2CC[C@@H](C1)N2CCOc1ccc(Oc2nc3c(F)cccc3s2)cc1` [Example 262, meso-endo-(8-{2-[4-(4-Fluoro-benzothiazole-2-yloxy)-phenoxy]-ethyl}-8-aza-bicyclo[3.2.1]oct-3-yl)-urea], 0.012 µM; with `CC(=O)N1CC2CN(Cc3ccc(Oc4nc5ccccc5s4)cc3)CC2C1` (centres unmarked) [Example 88, 1-{5-[4-(Benzothiazol-2-yloxy)-benzyl]-hexahydro-pyrrolo[3,4-c]pyrrol-2-yl}-ethanone], 0.003 µM.
Same read-out and setting: next, `O=C(NCc1ccco1)N1CC2CN(Cc3ccc(Oc4nc5ccccc5s4)cc3)CC2C1` (centres unmarked) [Example 131, 5-[4-(Benzothiazol-2-yloxy)-benzyl]-hexahydro-pyrrolo[3,4-c]pyrrole-2-carboxylic acid (furan-2-ylmethyl)-amide]: 0.013 µM; `O=C(CO)N1C[C@@H]2C[C@H]1CN2Cc1ccc(Oc2nc3ccccc3s2)cc1` [Example 10, (S,S)-1-{5-[4-(Benzothiazol-2-yloxy)-benzyl]-2,5-diaza-bicyclo[2.2.1]hept-2-yl}-2-hydroxy-ethanone]: 0.01 µM.
On the same count and under the same terms, with `CC(=O)N1CC2CN(CCOc3ccc(Oc4nc5ccccc5s4)cc3)CC2C1` (centres unmarked) [Example 94, 1-(5-{2-[4-(Benzothiazol-2-yloxy)-phenoxy]-ethyl}-hexahydro-pyrrolo[3,4-c]pyrrol-2-yl)-ethanone] the figure was 0.012 µM; with `COCC(=O)N1C[C@@H]2C[C@H]1CN2CCc1cccc(Oc2nc3ccccc3s2)c1` [Example 43], 0.442 µM.
Consider `COC(=O)CCCN1CC2CN(Cc3ccc(Oc4nc5ccccc5s4)cc3)CC2C1` (centres unmarked) [Example 156, 4-{5-[4-(Benzothiazol-2-yloxy)-benzyl]-hexahydro-pyrrolo[3,4-c]pyrrol-2-yl}-butyric acid methyl ester], for which the Ki was found to be 0.047 µM.
Same read-out and setting: with `NCC(=O)N[C@H]1C[C@H]2CC[C@@H](C1)N2Cc1ccc(Oc2nc3ccccc3s2)cc1` [Example 56, meso-endo-2-Amino-N-{8-[4-(benzothiazol-2-yloxy)-benzyl]-8-aza-bicyclo[3.2.1]oct-3-yl}-acetamide] the figure was 0.03 µM.
